# In patent US6329137A (priority 2000, dated 2001):
# Like-named read-outs stand apart in the source and are kept apart here.
# Experiments:
# [1] = tested on: background phosphatases in mock-infected sf9 cells; assay type: cell-based, fall armyworm Spodoptera; conditions: for effect on background phosphatases: infected sf9 cells, 10 mM pNPP
# [2] = tested on: PTPs (PTP1B-FL, CD45-cat and CD45-FL); assay type: cell-based
# CD45-cat = assay type: cell-based; conditions: infected sf9 cells, 10 mM pNPP
# PTP = conditions: cited from earlier work
# recombinant PTP1B = conditions: oxidizing its catalytic site cysteine; cited from earlier work
# PTP1B-FL = PTP1B-FL (Homo sapiens, UniProt P18031); assay: cell-based
# CD45 = assay type: cell-based
# Sequence of PTP1B-FL (P18031 whole entry): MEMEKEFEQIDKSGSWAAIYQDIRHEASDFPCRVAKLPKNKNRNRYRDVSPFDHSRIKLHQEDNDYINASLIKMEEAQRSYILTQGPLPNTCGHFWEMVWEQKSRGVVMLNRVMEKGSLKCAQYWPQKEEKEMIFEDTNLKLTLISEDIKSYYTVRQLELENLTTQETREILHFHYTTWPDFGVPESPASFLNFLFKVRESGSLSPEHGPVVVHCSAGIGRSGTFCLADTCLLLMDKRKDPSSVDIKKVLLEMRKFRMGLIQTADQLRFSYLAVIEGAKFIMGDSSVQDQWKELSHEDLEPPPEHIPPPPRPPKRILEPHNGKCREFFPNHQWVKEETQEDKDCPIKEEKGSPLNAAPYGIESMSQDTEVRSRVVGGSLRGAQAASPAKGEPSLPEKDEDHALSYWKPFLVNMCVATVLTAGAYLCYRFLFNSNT
smiles,measurement,setting,value
C=C1[C@@H](O)[C@@H]2O[C@]3(CC[C@H](/C=C/[C@@H](C)[C@@H]4CC(C)=C[C@@]5(O[C@H](C[C@@](C)(O)C(=O)O)CC[C@H]5O)O4)O3)CC[C@H]2O[C@@H]1[C@@H](O)C[C@H](C)[C@H]1O[C@@]2(CCCCO2)CC[C@H]1C [okadaic acid],effect on background phosphatases,[1]; okadaic acid at 6.7 μM,Neither ouabain at 1 mM or okadaic acid at 6.7 μM had any effect
same,effect on pNPP hydrolysis,[2],had no effect
same,effect on CD45-cat phosphatase,CD45-cat; okadaic acid at 6.7 μM,Neither ouabain at 1 mM or okadaic acid at 6.7 μM had any effect
"[Na+].[Na+].[Na+].[O]=[V]([O-])([O-])[O-] [vanadate, sodium orthovanadate]",IC50,[1],1.6 µM
same,mode of binding at active site,PTP,competitively and reversibly bound at the active site
OO [hydrogen peroxide],inactivation of recombinant PTP1B in vitro,recombinant PTP1B,inactivate recombinant PTP1B in vitro
same,IC50,PTP1B-FL,10 to 15 µM
same,potency and selectivity in words,"[2]; intact sf9 cells, 10 mM pNPP",limited potency and selectivity
same,IC50,[2]; read-out: IC50 values in the range of,7 to 16 µM
same,IC50,CD45; read-out: IC50 range,10 to 15 µM
C[C@@H]1O[C@@H](O[C@H]2C[C@@H](O)[C@]3(CO)[C@H]4[C@H](O)C[C@]5(C)[C@@H](C6=CC(=O)OC6)CC[C@]5(O)[C@@H]4CC[C@]3(O)C2)[C@H](O)[C@H](O)[C@H]1O [ouabain],inhibition of background infected cells,[1],no inhibition up to 1 mM
same,effect on background phosphatases,[1]; ouabain at 1 mM,Neither ouabain at 1 mM or okadaic acid at 6.7 μM had any effect
same,effect on CD45-cat phosphatase,CD45-cat; ouabain at 1 mM,Neither ouabain at 1 mM or okadaic acid at 6.7 μM had any effect
same,inhibition of CD45 expressing cells,CD45,no inhibition up to 1 mM
